Key:
[1] = Ring tensiometer
[2] = xn = mol fraction of the nth substance listed; details: Ring tensiometer

OCCO [1,2-ethanediol]
[1]
Details	surface tension liquid-gas [mN/m]
293.15 K	48.55
298.15 K	48.11
303.15 K	47.58
308.15 K	47.14
313.15 K	46.79
318.15 K	46.29
323.15 K	45.99

OCCO [1,2-ethanediol] + CC1CCC(O)CC1
[2], x2 = 0
Details	surface tension liquid-gas [mN/m]
293.15 K	48.55
298.15 K	48.11
303.15 K	47.58
308.15 K	47.14
313.15 K	46.79
318.15 K	46.29
323.15 K	45.99

OCCO [1,2-ethanediol] + CC1CCCC(O)C1
[2], x2 = 0
Details	surface tension liquid-gas [mN/m]
293.15 K	48.55
298.15 K	48.11
303.15 K	47.58
308.15 K	47.14
313.15 K	46.79
318.15 K	46.29
323.15 K	45.99

OCCO [1,2-ethanediol] + CC1CCCCC1O
[2], x2 = 0
Details	surface tension liquid-gas [mN/m]
293.15 K	48.55
298.15 K	48.11
303.15 K	47.58
308.15 K	47.14
313.15 K	46.79
318.15 K	46.29
323.15 K	45.99

CC1CCCCC1O (stereo not given) [2-methylcyclohexanol]
[1]
Details	surface tension liquid-gas [mN/m]
293.15 K	31.01
298.15 K	30.57
303.15 K	30.19
308.15 K	29.81
313.15 K	29.37
318.15 K	28.98
323.15 K	28.57

CC1CCCCC1O (stereo not given) [2-methylcyclohexanol] + OCCO
surface tension liquid-gas [mN/m], [2]
Details	293.15 K	298.15 K	303.15 K	308.15 K	313.15 K	318.15 K	323.15 K
x1 = 0.04	40.61	40.3	39.94	39.67	39.4	39.13	38.89
x1 = 0.105	36.13	35.89	35.62	35.32	35.07	34.81	34.56
x1 = 0.2	34.46	34.17	33.85	33.55	33.26	32.98	32.68
x1 = 0.307	33.49	33.2	32.88	32.58	32.22	31.94	31.63
x1 = 0.399	32.94	32.61	32.26	31.96	31.62	31.31	30.97
x1 = 0.514	32.38	32.03	31.68	31.33	30.98	30.69	30.36
x1 = 0.553	32.22	31.87	31.54	31.19	30.81	30.49	30.13
x1 = 0.76	31.72	31.36	30.97	30.61	30.29	29.91	29.52
x1 = 0.791	31.51	31.1	30.73	30.38	30	29.59	29.24
x1 = 0.892	31.2	30.78	30.39	30.05	29.67	29.27	28.87
x1 = 1	31.01	30.57	30.19	29.81	29.37	28.98	28.57

CC1CCCC(O)C1 (stereo not drawn) [3-methyl-1-cyclohexanol, (cis+trans)]
[1]
Details	surface tension liquid-gas [mN/m]
293.15 K	27.82
298.15 K	27.48
303.15 K	27.12
308.15 K	26.76
313.15 K	26.4
318.15 K	26.06
323.15 K	25.7

CC1CCCC(O)C1 (stereo not drawn) [3-methyl-1-cyclohexanol, (cis+trans)] + OCCO
surface tension liquid-gas [mN/m], [2]
Details	293.15 K	298.15 K	303.15 K	308.15 K	313.15 K	318.15 K	323.15 K
x1 = 0.05	36.72	36.51	36.29	36.07	35.88	35.66	35.44
x1 = 0.097	34.08	33.87	33.67	33.46	33.26	33.08	32.89
x1 = 0.258	31.57	31.25	30.97	30.7	30.42	30.15	29.91
x1 = 0.329	30.94	30.6	30.32	30.01	29.75	29.48	29.17
x1 = 0.389	30.57	30.23	29.98	29.65	29.38	29.09	28.76
x1 = 0.535	29.84	29.51	29.19	28.86	28.57	28.28	27.96
x1 = 0.623	29.39	29.05	28.75	28.43	28.14	27.82	27.42
x1 = 0.768	28.85	28.47	28.16	27.8	27.46	27.18	26.84
x1 = 0.864	28.43	28.02	27.68	27.34	27.03	26.69	26.33
x1 = 0.899	28.24	27.9	27.56	27.24	26.85	26.5	26.18
x1 = 1	27.82	27.48	27.12	26.76	26.4	26.06	25.7

CC1CCC(O)CC1 (stereo not given) [4-methylcyclohexanol]
[1]
Details	surface tension liquid-gas [mN/m]
293.15 K	27.63
298.15 K	27.3
303.15 K	26.98
308.15 K	26.61
313.15 K	26.31
318.15 K	25.96
323.15 K	25.63

CC1CCC(O)CC1 (stereo not given) [4-methylcyclohexanol] + OCCO
surface tension liquid-gas [mN/m], [2]
Details	293.15 K	298.15 K	303.15 K	308.15 K	313.15 K	318.15 K	323.15 K
x1 = 0.05	38.1	37.85	37.64	37.39	37.15	36.9	36.69
x1 = 0.097	34.38	34.18	33.98	33.78	33.6	33.4	33.21
x1 = 0.258	32.47	32.24	32.03	31.79	31.57	31.34	31.1
x1 = 0.329	31.48	31.24	30.99	30.74	30.48	30.26	30.01
x1 = 0.389	30.64	30.37	30.08	29.81	29.55	29.32	29.04
x1 = 0.535	30.35	30.05	29.77	29.48	29.23	28.96	28.68
x1 = 0.623	29.63	29.34	29.02	28.74	28.48	28.18	27.88
x1 = 0.768	29.21	28.92	28.6	28.29	28.02	27.73	27.4
x1 = 0.864	28.71	28.41	28.07	27.76	27.47	27.18	26.84
x1 = 0.899	28.07	27.75	27.43	27.11	26.77	26.45	26.15
x1 = 1	27.63	27.3	26.98	26.61	26.31	25.96	25.63

— the NIST ThermoML archive (doi:10.1021/je049919e)
